# Values of other authors as cited in patent US20060293293A1, “Salmeterol and ciclesonide combination” (Altana Pharma AG, priority 2003, published 2006).
# What was measured:
# [1] = compared with budesonide
structure (smiles),measurement,setting,value
"CC(C)C(=O)OCC(=O)[C@@]12O[C@H](C3CCCCC3)O[C@@H]1C[C@H]1[C@@H]3CCC4=CC(=O)C=C[C@]4(C)[C@H]3[C@@H](O)C[C@@]12C [Ciclesonide, [11β,16α(R)]-16,17[(Cyclohexylmethylen)bis(oxy)]-11-hydroxy-21-(2-methyl-1-oxoprop-oxy)pregna-1,4dien-3,20-dion]",anti-inflammatory activity relative to budesonide,[1],higher
same,systemic activity relative to budesonide,[1],three times lower
same,metabolism by liver oxidases,liver oxidases,very high
same,concentration of the drug in the lungs,lungs,high
same,absorption after oral administration,oral administration,only moderately absorbed
same,plasma half-life,plasma,low plasma half-life
